In paper PMC11800161 (ACS Omega, 2025):
Values after ≈ are worked out from the molar mass of the structure shown.

Experiments:
[1] = molecular target: E. coli MurA (Escherichia coli, UniProt P0A749); experiment: MurA enzyme inhibition assay; format: biochemical
[2] = tested on: S. faecalis (MTCC- 0459); experiment: Broth microdilution MIC/MBC, S. faecalis; format: cell-based, Streptococcus faecalis; details: for MIC: Enterococcus faecalis, MTCC0459; for antibacterial potency relative to penicillin G (times greater): by MIC, organism not named in the sentence (values match S. faecalis)
[3] = tested on: Bacillus pumilis (MTCC- 2296); experiment: Broth microdilution MIC/MBC, B. pumilis; format: cell-based; details: for potency relative to penicillin G (times greater): B. pumilis, by MIC; for MIC: Bacillus, MTCC2296
[4] = tested on: Saccharomyces cerevisiae (ATCC-9763); experiment: Broth microdilution MIC/MFC, S. cerevisiae; format: cell-based; details: ATCC9763
[5] = tested on: E. coli (ATCC- 25955); experiment: microbe, parasite or virus in culture; format: cell-based; details: Escherichia coli, ATCC25955
[6] = tested on: Enterobacter cloacae (ATCC- 23355); format: cell-based; details: E. cloacae
[7] = tested on: Candida albicans (ATCC-10231); experiment: Broth microdilution MIC/MFC, C. albicans; format: cell-based; details: ATCC10231
[8] = tested on: hemolytic activity of E. coli; experiment: Hemolysin inhibition assay, E. coli; format: cell-based; details: at 75%MBC, control 100% hemolysis
[9] = tested on: hemolytic activity of S. faecalis; experiment: Hemolysin inhibition assay, S. faecalis; format: cell-based; details: at 75%MBC, control 100% hemolysis

E. coli MurA, sequence (P0A749 whole entry): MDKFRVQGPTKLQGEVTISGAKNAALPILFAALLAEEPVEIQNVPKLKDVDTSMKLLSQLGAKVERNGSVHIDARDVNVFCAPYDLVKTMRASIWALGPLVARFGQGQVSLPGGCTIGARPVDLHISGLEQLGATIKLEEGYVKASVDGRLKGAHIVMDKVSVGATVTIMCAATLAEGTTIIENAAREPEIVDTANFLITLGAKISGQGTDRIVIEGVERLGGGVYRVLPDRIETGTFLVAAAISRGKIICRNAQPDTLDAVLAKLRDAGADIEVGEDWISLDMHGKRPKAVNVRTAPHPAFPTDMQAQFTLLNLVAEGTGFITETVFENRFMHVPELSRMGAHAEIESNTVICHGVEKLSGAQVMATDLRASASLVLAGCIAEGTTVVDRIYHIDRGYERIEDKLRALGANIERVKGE

MIC [2] [mg/L]	MIC [3] [mg/L]	Compound	potency relative to penicillin G (times greater) [3] [fold]	other results
15.6 (≈ 31.2 µM)	3.91 (≈ 7.81 µM)	Cc1ccc(N=Nc2c(N)nn3c(-c4ccco4)cc(-c4ccc(OCc5ccccc5)cc4)nc23)cc1 [Compound 4h, 5-(4-(Benzyloxy)phenyl)-7-(furan-2-yl)-3-(p-tolyldiazenyl)pyrazolo[1,5-a]pyrimidin-2-amine]	16	MIC [4]: 15.6 mg/L (≈ 31.2 µM)
	15.6 (≈ 30.2 µM)	COc1ccc(N=Nc2c(N)nn3c(-c4ccco4)cc(-c4ccc(OCc5ccccc5)cc4)nc23)cc1 [Compound 4i, 5-(4-(Benzyloxy)phenyl)-7-(furan-2-yl)-3-((4-methoxyphenyl)diazenyl)pyrazolo[1,5-a]pyrimidin-2-amine]	4	MBC/MIC [6]: 8; MIC [7]: 15.6 mg/L (≈ 30.2 µM)
31.5 (≈ 94.2 µM)	62.5 (≈ 187 µM)	CC1(C)S[C@@H]2[C@H](NC(=O)Cc3ccccc3)C(=O)N2[C@H]1C(=O)O [Penicillin G, penicillin G, reference compound]		

More lines, now with the values behind:

Compound	MIC [2] [mg/L]	MIC [3] [mg/L]	potency relative to penicillin G (times greater) [3] [fold]	other results
C[C@@H]1O[C@@H]1P(=O)(O)O [fosfomycin, Fosfomycin]				IC50 [1]: 69.8 µM
Cc1ccc(N=Nc2c(N)nn3c(-c4ccc(Cl)cc4Cl)cc(-c4ccc(OCc5ccccc5)cc4)nc23)cc1 [Compound 4e, 5-(4-(Benzyloxy)phenyl)-7-(2,4-dichlorophenyl)-3-(p-tolyldiazenyl)pyrazolo[1,5-a]pyrimidin-2-amine]	7.81 (≈ 13.5 µM)			antibacterial potency relative to penicillin G (times greater) [2]: 4 times
COc1ccc(N=Nc2c(N)nn3c(-c4ccc(Cl)cc4Cl)cc(-c4ccc(OCc5ccccc5)cc4)nc23)cc1 [Compound 4f, 5-(4-(Benzyloxy)phenyl)-7-(2,4-dichlorophenyl)-3-((4-methoxyphenyl)diazenyl)pyrazolo[1,5-a]pyrimidin-2-amine]	15.6 (≈ 26.2 µM)	7.81 (≈ 13.1 µM)	8	
Cc1ccc(-c2cc(-c3ccc(OCc4ccccc4)cc3)nc3c(N=Nc4ccc(F)cc4)c(N)nn23)cc1 [Compound 4a, 5-(4-(Benzyloxy)phenyl)-3-((4-fluorophenyl)diazenyl)-7-(p-tolyl)pyrazolo[1,5-a]pyrimidin-2-amine]	3.91 (≈ 7.4 µM)			antibacterial potency relative to penicillin G (times greater) [2]: 8 times
Cc1ccc(N=Nc2c(N)nn3c(-c4ccc(C)cc4)cc(-c4ccc(OCc5ccccc5)cc4)nc23)cc1 [Compound 4b, 5-(4-(Benzyloxy)phenyl)-7-(p-tolyl)-3-(p-tolyldiazenyl)pyrazolo[1,5-a]pyrimidin-2-amine]	15.6 (≈ 29.7 µM)	15.6 (≈ 29.7 µM)	4	MIC [5]: 1.95 mg/L (≈ 3.72 µM)
Nc1nn2c(-c3ccco3)cc(-c3ccc(OCc4ccccc4)cc3)nc2c1N=Nc1ccc(F)cc1 [Compound 4g, 5-(4-(Benzyloxy)phenyl)-3-((4-fluorophenyl)diazenyl)-7-(furan-2-yl)pyrazolo[1,5-a]pyrimidin-2-amine]	1.95 (≈ 3.87 µM)	3.91 (≈ 7.75 µM)	16	antibacterial potency relative to penicillin G (times greater) [2]: 16 times
Nc1nn2c(-c3ccc(Cl)cc3Cl)cc(-c3ccc(OCc4ccccc4)cc3)nc2c1N=Nc1ccc(F)cc1 [Compound 4d, 5-(4-(Benzyloxy)phenyl)-7-(2,4-dichlorophenyl)-3-((4-fluorophenyl)diazenyl)pyrazolo[1,5-a]pyrimidin-2-amine]				MIC [4]: 15.6 mg/L (≈ 26.7 µM)
COc1ccc(N=Nc2c(N)nn3c(-c4ccc(C)cc4)cc(-c4ccc(OCc5ccccc5)cc4)nc23)cc1 [Compound 4c, 5-(4-(Benzyloxy)phenyl)-3-((4-methoxyphenyl)diazenyl)-7-(p-tolyl)pyrazolo[1,5-a]pyrimidin-2-amine]	15.6 (≈ 28.9 µM)	7.81 (≈ 14.4 µM)	8	MIC [5]: 1.95 mg/L (≈ 3.61 µM); hemolysis [8]: 7.1%; hemolysis [9]: 3.3%
